Values quoted from earlier work as cited in patent US20190117669A1, “Methods for Treating NSAID-Induced Cardiovascular, Cerebrovascular, or Renovascular Adverse Events” (University of Utah Research Foundation, priority 2016, published 2019).

How the values were obtained:
[1] = rats, all misoprostol-treated groups
[2] = dogs, misoprostol 3 mcg/kg every 8 hours for 8 days

Q: For `CCCCC(C)(O)C/C=C/[C@H]1[C@H](O)CC(=O)[C@@H]1CCCCCCC(=O)OC` (mixture of isomers) [misoprostol], which blood pressure [1] is on record?
A: The blood pressure was “increased”.

Q: What about the “azotemia, hyperphosphatemia and renal histopathologic changes versus gentamicin alone” value [2] of the same compound?
A: The value was “more severe azotemia, hyperphosphatemia, and renal histopathologic changes”.
